Laboratory results: patent publication US11478476B2 (CONTERA PHARMA APS, priority 2014, dated 2022)
Where two headings read alike, the source gives them in different places.

Tests used:
[1] = tested on: L-DOPA induced dyskinesia (LID) model rats; assay: L-DOPA induced AIMs in 6-OHDA lesioned LID model rats; format: in vivo, rat
Excerpt: Animals: 80 experimentally-naïve, male, 9 weeks old Sprague-Dawley rats at body weight of 200 to 250 g arrive at the laboratory at least 1 week prior to behavioural testing. Rats were housed in groups of n=2/cage. Animals had ad libitum access to standard rodent chow and water. Animal housing and testing rooms were maintained under controlled environmental conditions and were within close proximity of each other. Animal housing rooms were on a 12-hour light-dark cycle with lights on at 6:00 AM and maintained at 70° F./21° C. (range: 68-72° F./20-22° C.) with a humidity range of 20-40%. Testing rooms were maintained at 68-72° F. with a humidity range of 20-40%. DA (dopamine)-denervating lesions were performed by unilateral injection of 6-OHDA in the ascending nigrostriatal pathway. Rats were anesthetized with pentobarbital sodium 40 mg/kg (i.p.) and positioned in a stereotactic frame. 6-OHDA was injected into the right ascending DA bundle at the following coordinates relative to bregma and dural surface: A (anterior-posterior), L (lateral), V (dorsoventral): A −1.8, L −2.0, V −8.6, tooth bar 0.0.
The neurotoxin injections were performed at a rate of 1 ul/min, and the injection cannula is left in place for an additional 2-3 min thereafter. Two weeks after surgery, contralateral full body turns were recorded over 30 min, following s.c. injection of 0.5 mg/kg of apomorphine sulfate. The animals were placed in plastic Perspex bowls (30 cm in diameter) and the rotational behavior (360° turns) is recorded by an automated rotometer for […] after the s.c. injection of 0.5 mg/kg of apomorphine sulfate. Apomorphine (0.5 mg/kg, s.c.) induced contralateral rotation in unilateral 6-OHDA lesioned rats. 73 rats with rotations ≥180/30 min, indicating >90% DA lesion in nigrostriatal pathway, were chosen as the PD model rats for chronic L-DOPA treatment.
Starting one day after the apomorphine-induced rotation test, 6-OHDA-lesioned rats were treated with daily L-DOPA (Sigma-Aldrich, Germany) (8 mg/kg plus benserazide 15 mg/kg, s.c.) for 21 days. Rats were placed individually in transparent plastic cages without bedding material and scored every 20 min following the injection of L-DOPA for the entire time course of dyskinesias (120 min). The AIMs were classified into four subtypes according to their topographic distributions such as Locomotive, Forelimb, Axial and Orolingual behaviors. The severity of each AIM subtype was assessed by using scores from 0 to 4 (1: occasional, i.e. present less than 50% of the time; 2: frequent, i.e. present more than 50% of the time; 3: continuous, but interrupted by strong sensory stimuli; 4: continuous, not interrupted by strong sensory stimuli). In this study, rats with an AIMs≥28 were considered highly dyskinetic, while rats with an AIMs<28 either low or none-dyskinetic.
After chronic L-DOPA treatment on PD rats for 21 days, 42 LID model rats (348 g˜501 g, 15 weeks old) were successfully created with the criteria of total AIM scores (Lo+Li+AX+OI)≥28 points.
AIMs ratings were performed by an investigator who was kept unaware of the pharmacological treatment administered to each rat (experimentally blinded). In order to quantify the severity of the AIMs, rats were observed individually in their standard cages every 20th minute at 20-180 min after an injection of I-DOPA. The AIM's were classified into four subtypes:
Each of the four subtypes are scored on a severity scale from 0 to 4, where 0=absent, 1=present during less than half of the observation time, 2=present for more than half of the observation time, 3=present all the time but suppressible by external stimuli, and 4=present all the time and not suppressible by external stimuli. Axial, limb and orolingual AIMs are found to be modulated in a similar way by all the tested substances.
Rats were tested for AIMs using the sum of locomotive (LO) oraxial (AX), limb (LI), and orolingual (OL) AIM scores per testing session for statistical analyses. […]

[2] = molecular target: human recombinant dopamine D2 receptor (Homo sapiens, UniProt P14416); conditions: read-out: D2 affinity Ki ± SEM; cited from earlier work
[3] = molecular target: human recombinant dopamine D3 receptor (Homo sapiens, UniProt P35462); conditions: read-out: D3 affinity Ki ± SEM; cited from earlier work
[4] = molecular target: T1, human recombinant dopamine D4 receptor (Homo sapiens, UniProt P21917); conditions: read-out: D4 affinity Ki ± SEM; cited from earlier work
T1 sequence (P21917 1-419): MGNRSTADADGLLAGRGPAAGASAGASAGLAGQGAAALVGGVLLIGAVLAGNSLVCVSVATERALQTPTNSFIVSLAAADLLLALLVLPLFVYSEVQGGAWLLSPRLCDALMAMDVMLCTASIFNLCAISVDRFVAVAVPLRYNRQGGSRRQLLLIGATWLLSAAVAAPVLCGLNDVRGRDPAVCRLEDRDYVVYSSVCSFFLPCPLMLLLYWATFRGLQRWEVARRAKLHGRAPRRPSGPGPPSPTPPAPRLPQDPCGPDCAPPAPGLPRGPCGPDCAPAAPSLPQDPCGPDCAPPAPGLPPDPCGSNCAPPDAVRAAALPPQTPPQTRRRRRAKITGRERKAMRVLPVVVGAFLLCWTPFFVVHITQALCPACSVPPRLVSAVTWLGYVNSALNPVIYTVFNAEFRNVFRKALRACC

[5] = cited from earlier work
[6] = molecular target: T2, serotonin 5-HT1A receptor (Rattus norvegicus, UniProt P19327); conditions: rats, intravenous infusions to steady-state plasma levels, cited from earlier work
T2 construct: host or cells: rat brain in vivo (dorsal raphe, hippocampus)
T2 sequence (P19327 1-422): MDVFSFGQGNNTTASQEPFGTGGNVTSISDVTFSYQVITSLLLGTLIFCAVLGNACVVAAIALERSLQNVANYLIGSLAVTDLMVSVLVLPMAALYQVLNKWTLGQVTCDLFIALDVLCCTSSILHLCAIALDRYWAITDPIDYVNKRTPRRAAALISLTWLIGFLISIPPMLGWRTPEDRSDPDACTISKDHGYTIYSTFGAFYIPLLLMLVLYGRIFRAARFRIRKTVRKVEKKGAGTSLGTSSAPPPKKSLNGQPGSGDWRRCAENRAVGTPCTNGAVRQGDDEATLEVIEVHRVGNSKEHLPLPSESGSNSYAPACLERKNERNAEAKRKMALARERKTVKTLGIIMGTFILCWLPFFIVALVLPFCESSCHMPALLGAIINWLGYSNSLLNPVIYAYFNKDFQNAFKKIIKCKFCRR

Chain of human recombinant dopamine D3 receptor (P35462 whole entry): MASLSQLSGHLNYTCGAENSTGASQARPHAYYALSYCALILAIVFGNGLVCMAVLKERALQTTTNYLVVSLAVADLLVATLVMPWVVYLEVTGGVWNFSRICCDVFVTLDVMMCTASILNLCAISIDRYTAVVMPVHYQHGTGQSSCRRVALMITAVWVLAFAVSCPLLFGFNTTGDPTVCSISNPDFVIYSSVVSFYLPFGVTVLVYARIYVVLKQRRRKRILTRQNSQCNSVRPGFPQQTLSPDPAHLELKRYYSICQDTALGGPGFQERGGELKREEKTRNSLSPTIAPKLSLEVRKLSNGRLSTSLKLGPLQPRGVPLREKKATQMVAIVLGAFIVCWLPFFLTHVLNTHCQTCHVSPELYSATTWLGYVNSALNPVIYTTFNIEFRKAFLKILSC
Chain of human recombinant dopamine D2 receptor (P14416 whole entry): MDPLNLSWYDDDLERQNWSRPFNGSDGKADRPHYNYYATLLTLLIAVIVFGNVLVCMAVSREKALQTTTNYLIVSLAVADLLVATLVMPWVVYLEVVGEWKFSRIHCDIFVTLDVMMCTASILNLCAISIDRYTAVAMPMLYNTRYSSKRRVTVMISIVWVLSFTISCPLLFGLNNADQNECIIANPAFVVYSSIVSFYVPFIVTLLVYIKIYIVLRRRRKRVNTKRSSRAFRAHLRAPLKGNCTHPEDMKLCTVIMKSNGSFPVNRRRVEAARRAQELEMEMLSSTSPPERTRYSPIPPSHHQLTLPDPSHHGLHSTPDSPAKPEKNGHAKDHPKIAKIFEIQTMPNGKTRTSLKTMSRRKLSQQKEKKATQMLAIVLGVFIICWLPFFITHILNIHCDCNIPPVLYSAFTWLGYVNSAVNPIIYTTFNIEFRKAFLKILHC

With `O=C1CC2(CCCC2)C(O)C(=O)N1CCCCN1CCN(c2ncccn2)CC1` (racemic) [6-OH-Busp] the “total AIMs sum” value ([1]; Example XII, 0.3, 1 and 3 mg/kg s.c.) was “dose-dependently decreased”, the “AIMs of LID rats at time points” value ([1]; Example XII, 0.3, 1 and 3 mg/kg s.c., 30 to 190 min after L-DOPA injection) was “dose-dependently decreased” and the “AUC of total AIMs from 10 min to 190 min” value ([1]; Example XII, buspirone 1 mg/kg s.c., 6-OH-Busp 0.3, 1 and 3 mg/kg s.c., vs vehicle) was “dose-dependently decreased”. For the same compound, the “AIMs of LID rats at time points” value ([1]; Example XIII, 1 mg/kg s.c., 50 min and 70 min after L-DOPA injection) was “did not significantly decrease”, the “AIMs of LID rats at time points” value ([1]; Example XIII, 3 mg/kg s.c., 50 to 190 min) was “significantly decreased” and the “AIMs of LID rats at time points” value ([1]; Example XIV, 1 mg/kg s.c. alone, 90 min and 110 min after L-DOPA injection) was “did not have significant effects”. For the same compound, the Ki [2] was 5.39 ± 0.425 µM, the Ki [3] was 795 ± 84 nM and the Ki [4] was 40.4 ± 17.5 nM. For the same compound, the “exposure (area under the concentration-time profile) of metabolite relative to parent compound” value ([5]; oral dosing of buspirone in rats) was 12 fold, the Bioavailability ([5]; rats) was 19% and the plasma half-life ([5]; rats) was 1.2 ± 0.2 h. The EC50 ([6]; dorsal raphe (presynaptic), read-out: 5-HT1A receptor occupancy EC50, dorsal raphe) was 1000 ± 300 nM and the EC50 ([6]; hippocampus (postsynaptic), read-out: 5-HT1A receptor occupancy EC50, hippocampus) was 4000 ± 600 nM.
